Measured values: paper PMC12557367, ““Precision on Two Wheels”–Structural Refinement of ^64Cu- and ^68Ga-Labeled Bicyclic Peptides Targeting Nectin‑4 for Improved Tumor Imaging: From Preclinical Development to First-in-Human Application” (Journal of Medicinal Chemistry, 2025)
Numbered stars: 1 amine (or outer) side, 2 acyl side, 3 side chain; on linkers, the order of the positions; unused ones are H or OH. Bridge positions count the residues as written; N and C are the ends. Square brackets hold non-standard residues; d marks the D form. Peptide text beside a SMILES is read from it. * marks the point of attachment. TATA = O=C(CC[*:1])N1CN(C(=O)CC[*:2])CN(C(=O)CC[*:3])C1; X1 = O=C(O)CN1CCN(CC(=O)O)CCN([C@H](CCC(=O)*)C(=O)O)CC1; 1Nal = N[C@@H](Cc1cccc2ccccc12)C(=O)O; 2Nal = N[C@@H](Cc1ccc2ccccc2c1)C(=O)O; Hyp = O=C(O)[C@@H]1C[C@@H](O)CN1; hArg = N=C(N)NCCCC[C@H](N)C(=O)O; SeMet = C[Se]CC[C@H](N)C(=O)O; hSer = N[C@@H](CCO)C(=O)O

Columns and labels:
[1] = biological target: T1, recombinant human nectin-4 (Homo sapiens, UniProt Q96NY8); assay: FA-based competitive binding assay with probe 1a; details: for Hill coefficient n: competitive binding curve, variable slope
T1 construct: close to the value determined for the complete extracellular domain of nectin-4 (0.94 nM); purchased R&D Systems 2659-N4
T1 sequence (Q96NY8 32-349 limits assumed): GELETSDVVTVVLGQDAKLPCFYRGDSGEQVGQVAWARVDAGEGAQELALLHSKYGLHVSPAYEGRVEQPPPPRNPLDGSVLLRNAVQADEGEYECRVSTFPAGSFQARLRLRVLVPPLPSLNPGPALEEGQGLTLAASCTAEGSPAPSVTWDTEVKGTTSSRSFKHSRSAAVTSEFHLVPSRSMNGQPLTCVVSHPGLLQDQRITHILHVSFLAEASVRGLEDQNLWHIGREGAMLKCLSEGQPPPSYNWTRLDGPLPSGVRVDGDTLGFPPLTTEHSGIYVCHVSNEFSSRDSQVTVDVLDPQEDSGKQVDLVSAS

[2] = n-Octanol/PBS distribution coefficient (logD 7.4); type: physicochemical
Experimental: The determination of logD 7.4 was performed in triplicate. A sample of the ^64Cu/^68Ga-labeled compound containing ≈1 MBq in a volume of 1 μL was added to a 1.5 mL Eppendorf tube containing 400 μL of PBS (pH 7.4) and 400 μL of n-Octanol (the phases were presaturated with each other). The tube was vortexed vigorously for 1 min and then centrifuged at 16,100g for 4 min to separate the phases. For sampling from the aqueous phase, the pipette tip was discharged while passing through the octanol layer. Then, the sample was taken within the aqueous phase. Any residual liquid was carefully removed by moving the tip along the inner wall of an Eppendorf tube. The radioactivity in a defined volume of each layer was measured (ISOMED 2100). The distribution coefficient was expressed as the logarithm of the ratio of counts per minute (cpm) measured in the n-Octanol phase to the cpm measured in the PBS phase.

[3] = Chromatographic hydrophobicity index at immobilized artificial membrane (CHI IAM7.4) by HPLC; type: physicochemical; details: nonlabeled peptide, pH 7.4
Experimental: Consequently, the CHI IAM7.4 values indicate that unfavorable pharmacokinetic behavior due to nonspecific binding is not to be expected.
All commercial reagents and solvents were used without further purification, unless otherwise specified. […] The purity of compound 5, which bears selenomethionine, was lower due to the lability to oxidation (as discussed above). The HPLC-based determination of chromatographic hydrophobicity indices at an immobilized artificial membrane was performed as previously described according to the method developed by Valko et al.

[4] = tested on: HT-1376-derived tumor xenograft model; assay: Small animal PET/CT imaging; design: species or system mice; details: mouse, in vivo
Summary of the method: (§1)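 NMRI nude mice bore subcutaneous HT-1376 xenografts (5 × 10^6 cells in 50% Matrigel), imaged at ~200 mm^3 tumour volume. Radioligand (molar activity 25 MBq/nmol; ~9 MBq, ≈0.46 nmol) injected i.v. via tail vein, with 75 nmol blocking substance co-injected for blocking; dynamic 2 h PET from injection plus CT for attenuation correction.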

[5] = biological target: human serum albumin (HSA) (Homo sapiens, UniProt P02768); type: in vitro ADME
human serum albumin (HSA), sequence (P02768 25-609): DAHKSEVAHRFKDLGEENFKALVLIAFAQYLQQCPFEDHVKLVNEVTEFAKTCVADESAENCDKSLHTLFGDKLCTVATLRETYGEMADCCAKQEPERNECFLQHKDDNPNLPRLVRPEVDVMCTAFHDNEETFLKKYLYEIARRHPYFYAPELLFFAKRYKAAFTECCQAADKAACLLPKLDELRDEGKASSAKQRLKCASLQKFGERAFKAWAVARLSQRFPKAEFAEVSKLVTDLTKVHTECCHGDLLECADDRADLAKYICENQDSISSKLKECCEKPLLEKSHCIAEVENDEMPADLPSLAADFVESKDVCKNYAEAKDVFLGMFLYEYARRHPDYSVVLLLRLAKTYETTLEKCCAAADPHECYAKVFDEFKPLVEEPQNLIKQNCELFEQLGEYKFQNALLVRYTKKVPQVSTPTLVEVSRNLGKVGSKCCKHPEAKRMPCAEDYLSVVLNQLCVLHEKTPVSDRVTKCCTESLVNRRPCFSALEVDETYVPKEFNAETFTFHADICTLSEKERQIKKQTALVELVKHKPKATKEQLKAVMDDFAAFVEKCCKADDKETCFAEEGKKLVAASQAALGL
Source text: page 20: S20 Figure S11: Assessment of plasma protein and HSA binding for [64Cu]Cu-1e and [64Cu]Cu-4 by ultrafiltration […] PBS), and undiluted human plasma. B) Plot of “percentage of retained activity in filter” = f([HSA]) for [64Cu]Cu-4 with nonlinear regression according to the Morrison equation ( total […] labeling). For details on the experimental method and regression analysis see ref. 1. PBS HSA Plasma 0% 20% 40% 60% 80% 47 64 50 percentage of retained activity in filter 102 103 104 105 106 107 0 20 40 60 80 100 [HSA] (nM) percentage of retained activity in filter […] A B (1 picture or pasted object on this page, not shown here)

[6] = Oxidation stability in H2O2 (radio-HPLC)
Experimental: To avoid a too rapid degradation of radiolabeled peptides, a low H2O2 concentration of 0.0012% was chosen. […] In this context, there are three further thioether functionalities in each peptide due to the cyclization of the Cys residues with TATA. In Figure , the curves for the time-dependent degradation of the intact radioligands are depicted, from which the respective half-lives were calculated.
The stability toward oxidizing conditions was assessed with H2O2. For this purpose, the radioligands (2 nmol, 48 μL of labeling mixture) were treated with H2O2 (2 μL of 0.03%, final concentration of 0.0012%) at ambient temperature. At distinct time points (3, 5, and 7 h), an aliquot of 2 μL was withdrawn and diluted with 48 μL of a mixture named “Supersol,” which consists of 20% ethanol, 0.5% Triton X-100, 5 mM EDTA, 0.5 mM o-phenanthroline, and 0.1% saponin. […] The resulting solutions were analyzed by radio-HPLC (same system as that used for analyzing the ^64Cu-labelings).

[7] = Small animal PET/CT imaging; design: species or system mice; details: mouse, in vivo, TAC for heart, two-phase decay
Summary of the method: as §1

[8] = biological target: T2, immobilized human nectin-4 (Homo sapiens, UniProt Q96NY8); assay: SPR analysis of binding kinetics; details: ±SEM; for kon: HBS-P+ pH 7.4, 25 °C, read-out: k on (SPR, *10^6 M^–1 s^–1); for koff: pH 7.4, HBS-P+ pH 7.4, 25 °C, read-out: k off (SPR, *10^–3 s^–1)
T2 construct: close to the value determined for the complete extracellular domain of nectin-4 (0.94 nM); purchased R&D Systems 2659-N4
T2 sequence (Q96NY8 32-349 limits assumed): T1 sequence (Q96NY8 32-349 limits assumed)
Experimental: For this purpose, recombinant human nectin-4 was covalently immobilized on a CM5 sensor chip by EDC/NHS coupling. For analyses, the buffer composition (HBS-P+, pH 7.4) was similar to that of the FA assay; however, DMSO was completely omitted (1% DMSO for the FA assay).
The SPR analyses were carried out on a Biacore T200 (GE Healthcare, Chicago, IL, USA) at 25 °C using CM5 sensor chips (Cytiva) and HBS-P+ as running buffer (Cytiva) at a flow of 30 μL/min unless otherwise specified and a data collection rate of 10 Hz. All flow cells (FC) were normalized, and functionalization was performed using an amine coupling Kit (Cytiva). […] Binding analyses were performed by a single-cycle kinetic on both FC. Two start-up cycles were performed at the beginning of each experimental set, comprising the injection of bicyclic peptide (50 nM) and analysis on both FC, followed by regeneration. Binding analysis for the bicyclic peptides was performed by consecutive injection of five increasing concentrations (120 s contact time for each concentration), followed by 600 s dissociation time and analysis on both FC. The regeneration was performed by sequential injection of 10 mM NaOAc (pH 5.5) for 60 s, washing the needle using HBS-P+, injection of 10 mM NaOAc (pH 5.5) for 60 s, 600 s waiting, four injections of HBS-P+ (60 s), and a final 600 s waiting for stabilization. Blank runs using only buffer (HBS-P+) instead of the sample were carried out to obtain double-referenced chromatograms. Binding analyses were performed unless otherwise stated in a concentration range between 0.16–100 nM and 1.6–1000 nM (5-fold dilution series) and analyzed in triplicate. The data were analyzed using the Biacore Evaluation software 3.2.1. […] Data were fitted to a 1:1 binding model.

HT-1376 cells = assay: Saturation binding assay on intact cells; type: cell-based, human; details: ^64Cu-labeled ligand, intact HT-1376 cells, 60 min, PBS wash; apparent; ±SD
Experimental: For the saturation binding assay, total and nonspecific binding were determined as described above using 10 different radioligand concentrations ([…]) prepared by serial 1:1 dilution. Plots of “total binding” = f(radioligand) were analyzed by nonlinear regressions using the model of “one site-total, accounting for ligand depletion” as implemented in GraphPad Prism, and Plots of “nonspecific binding” = f(radioligand) were analyzed by linear regressions.

Compound	Hill coefficient n [1]	CHI IAM7.4 [3]	kon [8]	koff [8]	time of highest tumor uptake [4]	binding to HSA or other plasma proteins [5]	further results
C[Se]CC[C@@H]1NC(=O)[C@@H]2CSCCC(=O)N3CN(CN(C3)C(=O)CCSC[C@H](NC(=O)CC[C@H](C(=O)O)N3CCN(CC(=O)O)CCN(CC(=O)O)CC3)C(=O)N3CCC[C@H]3C(=O)N[C@@H](Cc3cccc4ccccc34)C(=O)N[C@H](CC(=O)O)C(=O)N2)C(=O)CCSC[C@@H](C(N)=O)NC(=O)[C@H](Cc2c[nH]c3ccccc23)NC(=O)[C@@H]2C[C@@H](O)CN2C(=O)[C@@H]2CCCN2C(=O)[C@H]([C@@H](C)O)NC(=O)[C@H](CO)NC(=O)[C@H](Cc2c[nH]c3ccccc23)NC(=O)[C@H](CC(=O)O)NC(=O)[C@H](CCCCNC(=N)N)NC1=O [compound 5] (X1-CP[1Nal][dD]C[SeMet][hArg]DWSTP[Hyp]WC-NH2; linker 1-5-15 via TATA)	1.69	19.5					logD 7.4 ([2]; ^64Cu-labeled ligand, n-octanol/PBS pH 7.4, ±SD): –2.37 (±0.07)
CSCC[C@@H]1NC(=O)[C@@H]2CSCCC(=O)N3CN(CN(C3)C(=O)CCSC[C@H](NC(=O)CC[C@H](C(=O)O)N3CCN(CC(=O)O)CCN(CC(=O)O)CC3)C(=O)N3CCC[C@H]3C(=O)N[C@@H](Cc3cccc4ccccc34)C(=O)N[C@H](CC(=O)O)C(=O)N2)C(=O)CCSC[C@@H](C(N)=O)NC(=O)[C@H](Cc2c[nH]c3ccccc23)NC(=O)[C@@H]2C[C@@H](O)CN2C(=O)[C@@H]2CCCN2C(=O)[C@H]([C@@H](C)O)NC(=O)[C@H](CO)NC(=O)[C@H](Cc2c[nH]c3ccccc23)NC(=O)[C@H](CC(=O)O)NC(=O)[C@H](CCCCNC(=N)N)NC1=O [[^64Cu]Cu-1e] [metal not drawn]					≈ 6 min	negligible binding capability	Percent fast [%] [4]: 86.95 ±2.10%
COCC[C@@H]1NC(=O)[C@@H]2CSCCC(=O)N3CN(CN(C3)C(=O)CCSC[C@H](NC(=O)CC[C@H](C(=O)O)N3CCN(CC(=O)O)CCN(CC(=O)O)CC3)C(=O)N3CCC[C@H]3C(=O)N[C@@H](Cc3cccc4ccccc34)C(=O)N[C@H](CC(=O)O)C(=O)N2)C(=O)CCSC[C@@H](C(N)=O)NC(=O)[C@H](Cc2c[nH]c3ccccc23)NC(=O)[C@@H]2C[C@@H](O)CN2C(=O)[C@@H]2CCCN2C(=O)[C@H]([C@@H](C)O)NC(=O)[C@H](CO)NC(=O)[C@H](Cc2c[nH]c3ccccc23)NC(=O)[C@H](CC(=O)O)NC(=O)[C@H](CCCCNC(=N)N)NC1=O [[^64Cu]Cu-4, metal not drawn] (X1-CP[1Nal][dD]C[hSer](Me)[hArg]DWSTP[Hyp]WC-NH2; linker 1-5-15 via TATA)							half-life [6]: 412 min; half-life ([7]; distribution phase, read-out: Blood half life fast): 1.3 ± 0.17 min; half-life ([7]; elimination phase, read-out: Blood half life slow): 32 ± 2.09 min; Kd ([5]; human): > 600000 nM
COCC[C@@H]1NC(=O)[C@@H]2CSCCC(=O)N3CN(CN(C3)C(=O)CCSC[C@H](NC(=O)CC[C@H](C(=O)O)N3CCN(CC(=O)O)CCN(CC(=O)O)CC3)C(=O)N3CCC[C@H]3C(=O)N[C@@H](Cc3cccc4ccccc34)C(=O)N[C@H](CC(=O)O)C(=O)N2)C(=O)CCSC[C@@H](C(N)=O)NC(=O)[C@H](Cc2c[nH]c3ccccc23)NC(=O)[C@@H]2C[C@@H](O)CN2C(=O)[C@@H]2CCCN2C(=O)[C@H]([C@@H](C)O)NC(=O)[C@H](CO)NC(=O)[C@H](Cc2c[nH]c3ccccc23)NC(=O)[C@H](CC(=O)O)NC(=O)[C@H](CCCCNC(=N)N)NC1=O [[^64Cu]Cu-4] [metal not drawn] (X1-CP[1Nal][dD]C[hSer](Me)[hArg]DWSTP[Hyp]WC-NH2; linker 1-5-15 via TATA)					12.5 min	negligible binding capability	logD 7.4 ([2]; pH 7.4): −2.76; body retention at 2 h p.i. [4]: 40–42%

Further lines, with some results ahead:

Hill coefficient n [1]	CHI IAM7.4 [3]	kon [8]	koff [8]	Compound	time of highest tumor uptake [4]	binding to HSA or other plasma proteins [5]	further results
2.05	19.9	1.11e+06 M⁻¹ s⁻¹	0.00278 s⁻¹	CSCC[C@@H]1NC(=O)[C@@H]2CSCCC(=O)N3CN(CN(C3)C(=O)CCSC[C@H](NC(=O)CC[C@H](C(=O)O)N3CCN(CC(=O)O)CCN(CC(=O)O)CC3)C(=O)N3CCC[C@H]3C(=O)N[C@@H](Cc3cccc4ccccc34)C(=O)N[C@H](CC(=O)O)C(=O)N2)C(=O)CCSC[C@@H](C(N)=O)NC(=O)[C@H](Cc2c[nH]c3ccccc23)NC(=O)[C@@H]2C[C@@H](O)CN2C(=O)[C@@H]2CCCN2C(=O)[C@H]([C@@H](C)O)NC(=O)[C@H](CO)NC(=O)[C@H](Cc2c[nH]c3ccccc23)NC(=O)[C@H](CC(=O)O)NC(=O)[C@H](CCCNC(=N)N)NC1=O [compound 10] (X1-CP[1Nal][dD]CMRDWSTP[Hyp]WC-NH2; linker 1-5-15 via TATA)			
0.99	20.3	680000 M⁻¹ s⁻¹	0.0433 s⁻¹	CSCC[C@@H]1NC(=O)[C@@H]2CSCCC(=O)N3CN(CN(C3)C(=O)CCSC[C@H](NC(=O)CC[C@H](C(=O)O)N3CCN(CC(=O)O)CCN(CC(=O)O)CC3)C(=O)N3CCC[C@H]3C(=O)N[C@@H](Cc3ccc4ccccc4c3)C(=O)N[C@H](CC(=O)O)C(=O)N2)C(=O)CCSC[C@@H](C(N)=O)NC(=O)[C@H](Cc2c[nH]c3ccccc23)NC(=O)[C@@H]2C[C@@H](O)CN2C(=O)[C@@H]2CCCN2C(=O)[C@H]([C@@H](C)O)NC(=O)[C@H](CO)NC(=O)[C@H](Cc2c[nH]c3ccccc23)NC(=O)[C@H](CC(=O)O)NC(=O)[C@H](CCCNC(=N)N)NC1=O [8a] (X1-CP[2Nal][dD]CMRDWSTP[Hyp]WC-NH2; linker 1-5-15 via TATA)			fold lower binding affinity compared to 1e ([1]; FA K d ratio): 30 fold; logD ([2]; pH 7.4, logD 7.4): -2.48; Kd (HT-1376 cells): 51.7 nM
